According to ChEMBL document CHEMBL2303647, “Data associated with the publication PLoS ONE, 8(3), e57888, (2013) PMID: 23505445. Compounds: GSK PKIS; Assays: NIH NCATS”:

Columns and labels:
[1] = molecular target: T1, Coelenterazine h 2-monooxygenase (Renilla reniformis, UniProt P27652)
T1 sequence (P27652 whole entry): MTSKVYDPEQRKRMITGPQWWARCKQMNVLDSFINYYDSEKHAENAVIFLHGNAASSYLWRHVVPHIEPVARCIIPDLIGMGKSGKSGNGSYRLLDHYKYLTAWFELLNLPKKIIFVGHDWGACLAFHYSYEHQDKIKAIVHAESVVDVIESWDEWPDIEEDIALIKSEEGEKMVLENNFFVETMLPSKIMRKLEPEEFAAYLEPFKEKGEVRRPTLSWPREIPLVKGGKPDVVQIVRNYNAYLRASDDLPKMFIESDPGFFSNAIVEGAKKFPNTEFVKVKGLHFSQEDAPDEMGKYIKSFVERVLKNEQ
Description: GSK_PKIS: Inhibition of Sea Pansy Luciferase (Data from PubChem: AID 652015) [NIH NCATS]

[2] = molecular target: Luciferin 4-monooxygenase (Photinus pyralis, UniProt P08659)
Chain of Luciferin 4-monooxygenase (P08659 whole entry): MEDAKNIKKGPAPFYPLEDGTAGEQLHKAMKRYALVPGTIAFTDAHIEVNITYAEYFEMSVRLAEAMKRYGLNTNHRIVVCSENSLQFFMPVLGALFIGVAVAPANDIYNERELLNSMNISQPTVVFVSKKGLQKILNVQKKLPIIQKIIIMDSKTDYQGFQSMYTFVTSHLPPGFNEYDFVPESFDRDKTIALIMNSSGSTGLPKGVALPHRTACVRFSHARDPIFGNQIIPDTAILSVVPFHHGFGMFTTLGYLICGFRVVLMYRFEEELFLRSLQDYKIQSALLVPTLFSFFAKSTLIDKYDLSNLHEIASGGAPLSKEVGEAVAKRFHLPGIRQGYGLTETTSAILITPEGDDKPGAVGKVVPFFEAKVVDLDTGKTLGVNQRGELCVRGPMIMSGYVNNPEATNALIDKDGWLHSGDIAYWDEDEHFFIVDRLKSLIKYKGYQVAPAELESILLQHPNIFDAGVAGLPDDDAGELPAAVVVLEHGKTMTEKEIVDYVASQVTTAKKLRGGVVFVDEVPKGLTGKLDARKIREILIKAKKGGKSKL
Description: GSK_PKIS: Inhibition of Firefly Luciferase (Data from PubChem: AID 652016) [NIH NCATS]

Structure (SMILES) | AC50 ([1]; read-out: AC50) | AC50 [2] | AC50 ([2]; read-out: AC50) | AC50 [1]
Fc1ccc(-c2ncn(C3CCNCC3)c2-c2ccnc(Oc3ccc(Oc4ccccc4)cc3)n2)cc1 | 20.6 µM | Phenotype: Inactive; Curve_Description: None | – | –
O=C1NC(=O)C(N2CCc3ccccc32)=C1c1ccc(Cl)cc1 | 20.6 µM | – | 6.51 µM | –
O=C1Nc2ccccc2/C1=C1\CCc2cc(O)ccc21 | 20.6 µM | – | 5.17 µM | –
NCc1ccc(-n2c(-c3nonc3N)nc3cnccc32)cc1 | 41.1 µM | Phenotype: Inactive; Curve_Description: None | – | –
c1ccc(Cc2nc3ccc(Nc4ncnc5ccccc45)cc3[nH]2)cc1 | 18.3 µM | – | 16.3 µM | –
COc1ccc2ncnc(Nc3ccc(OCc4ccccc4)cc3)c2c1.Cl | 0.0007 µM | Phenotype: Inactive; Curve_Description: None | – | –
Cl.Oc1cccc(-c2nc(-c3ccccc3)[nH]c2-c2ccncc2)c1 | 23.1 µM | Phenotype: Inactive; Curve_Description: None | – | –
CN(C)CCOc1ccc(-c2nc(-c3ccncc3)c(-c3ccc4c(c3)CC/C4=N\O)[nH]2)cc1 | 29.1 µM | – | 14.6 µM | –
CCN1CCC(CC(=O)Nc2n[nH]c3nc(-c4cccs4)c(Br)cc23)CC1.O=C(O)C(O)C(O)C(=O)O | 29.1 µM | Phenotype: Inactive; Curve_Description: None | – | –
COc1ccc2cc(-c3c(-c4ccncc4)nc(-c4ccc([S+](C)[O-])cc4C)n3C)ccc2c1 (stereo unspecified) | 41.1 µM | Phenotype: Inactive; Curve_Description: None | – | –
CN1CCC(C(=O)Nc2n[nH]c3nc(-c4ccc(O)cc4)c(Br)cc23)CC1 | 32.6 µM | Phenotype: Inactive; Curve_Description: None | – | –
OCc1ccc(-c2nc(-c3ccccn3)c(-c3ccc4c(c3)OCO4)[nH]2)cc1 | 41.1 µM | – | 18.3 µM | –
Fc1ccc(-c2ncn(C3CCNCC3)c2-c2ccnc(Oc3ccccc3)n2)cc1 | 18.3 µM | – | 20.6 µM | –
COc1ccc(C2=C(N3CCc4ccccc43)C(=O)NC2=O)cc1 | 20.6 µM | Phenotype: Inactive; Curve_Description: None | – | –
NS(=O)(=O)c1cccc(-c2ccc3c(NC(=O)C4CC4)n[nH]c3c2)c1 | 36.6 µM | – | 20.6 µM | –
CC1=C(C(=O)Nc2ccc3[nH]ncc3c2)C(c2ccc(F)cc2)NC(=O)N1 (stereo unspecified) [GSK-180736A] | – | Phenotype: Inactive; Curve_Description: None | – | Phenotype: Inactive; Curve_Description: None
CN(C)C(=O)O[C@H]1CN[C@H](C#Cc2cc3ncnc(Nc4ccc(OCc5cccc(F)c5)c(Cl)c4)c3s2)C1 [GSK-182497A] | – | – | 29.1 µM | Phenotype: Inactive; Curve_Description: None
CCNC(=O)O[C@H]1CN[C@H](C#Cc2cc3ncnc(Nc4ccc(OCc5cccc(F)c5)c(Cl)c4)c3s2)C1 [GSK-192082A] | – | Phenotype: Inactive; Curve_Description: None | – | Phenotype: Inactive; Curve_Description: None
Cl.O=C(O[C@H]1CN[C@H](C#Cc2cc3ncnc(Nc4ccc5c(cnn5Cc5ccccc5)c4)c3s2)C1)N1CCOCC1 [GSK-200398A] | – | – | 18.3 µM | Phenotype: Inactive; Curve_Description: None

Structure (SMILES) | AC50 ([1]; read-out: AC50) | AC50 [2] | AC50 ([2]; read-out: AC50) | AC50 [1]
COc1cc2ncn(-c3cc(OCCc4ccccc4)c(C(N)=O)s3)c2cc1OC [GSK-204925A] | – | Phenotype: Inactive; Curve_Description: None | – | Phenotype: Inactive; Curve_Description: None
COc1cc2ncn(-c3cc(O[C@@H](C)c4ccccc4Cl)c(C(N)=O)s3)c2cc1OC [GSK-237700A] | – | Phenotype: Inactive; Curve_Description: None | – | Phenotype: Inactive; Curve_Description: None
COc1cc2ncn(-c3cc(O[C@H](C)c4ccccc4Cl)c(C(N)=O)s3)c2cc1OC [GSK-237701A] | 3.66 µM | Phenotype: Inactive; Curve_Description: None | – | –
CN(C)C(=O)O[C@@H]1CN[C@@H](C#Cc2cc3ncnc(Nc4ccc(OCc5cccc(F)c5)c(Cl)c4)c3s2)C1 [GSK-238063A] | – | – | 32.6 µM | Phenotype: Inactive; Curve_Description: None
O=C(O)C(F)(F)F.O=C(O[C@H]1CN[C@H](C#Cc2cc3ncnc(Nc4ccc(Cc5ccccc5)cc4)c3s2)C1)N1CCOCC1 [GSK-238583A] | 23.1 µM | Phenotype: Inactive; Curve_Description: None | – | –
CCn1c(-c2nonc2N)nc2cnc(Oc3cccc(NC(=O)c4ccc(N(C)C)cc4)c3)cc21 [GSK-248233A] | – | – | 1.03 µM | Phenotype: Inactive; Curve_Description: None
O=C(O)C(F)(F)F.O=C(O[C@H]1CN[C@H](C#Cc2cc3ncnc(Nc4ccc5c(ccn5Cc5cc(F)ccc5F)c4)c3s2)C1)N1CCOCC1 [GSK-259178A] | – | Phenotype: Inactive; Curve_Description: None | – | Phenotype: Inactive; Curve_Description: None
CCn1c(-c2nonc2N)nc2cnc(Oc3cccc(NC(=O)c4ccc(OCCN5CCOCC5)cc4)c3)cc21.Cl [GSK-269962B] | – | Phenotype: Inactive; Curve_Description: None | – | Phenotype: Inactive; Curve_Description: None
CC1=C(C(=O)Nc2ccc3[nH]ncc3c2)C(c2ccc3ccccc3c2)CC(=O)N1 (stereo unspecified) [GSK-270822A] | – | – | 41.1 µM | Phenotype: Inactive; Curve_Description: None
CC1=C(C(=O)Nc2ccc3[nH]ncc3c2)C(c2ccc(Cl)c(Cl)c2)CC(=O)N1 (stereo unspecified) [GSK-299115A] | – | Phenotype: Inactive; Curve_Description: None | – | Phenotype: Inactive; Curve_Description: None
CS(=O)(=O)CCNCc1cc(-c2cc3c(Nc4ccc(OCc5cccc(F)c5)c(Cl)c4)ncnc3s2)cs1 [GSK-300014A] | – | Phenotype: Inactive; Curve_Description: None | – | Phenotype: Activator; Curve_Description: None
COc1cc2ncn(-c3cc(OCc4cccs4)c(C(N)=O)s3)c2cc1OC [GSK-312948A] | 9.19 µM | Phenotype: Inactive; Curve_Description: None | – | –
COc1ccc2ncn(-c3cc(O[C@H](C)c4ccccc4Cl)c(C(N)=O)s3)c2c1 [GSK-317314A] | – | Phenotype: Inactive; Curve_Description: None | – | Phenotype: Inactive; Curve_Description: None
COc1ccc2ncn(-c3cc(O[C@H](C)c4ccccc4C(F)(F)F)c(C(N)=O)s3)c2c1 [GSK-317315A] | 20.6 µM | Phenotype: Inactive; Curve_Description: None | – | –
CC1=C(C(=O)Nc2ccc3[nH]ncc3c2)C(c2ccc(F)cc2)N=C(c2ccc(C(F)(F)F)nc2)N1 (stereo unspecified) [GSK-317354A] | – | – | 41.1 µM | Phenotype: Activator; Curve_Description: None
COc1cc2ncn(-c3cc(OCc4ccccc4S(C)(=O)=O)c(C#N)s3)c2cc1OC [GSK-319347A] | – | Phenotype: Inactive; Curve_Description: None | – | Phenotype: Inactive; Curve_Description: None
C[C@@H](Oc1cc(-n2cnc3ccc(OCC4CCN(C)CC4)cc32)sc1C(N)=O)c1ccccc1C(F)(F)F [GSK-326090A] | 25.9 µM | Phenotype: Inactive; Curve_Description: None | – | –
CC1=C(C(=O)Nc2ccc3[nH]nc(C)c3c2)C(c2ccc(C(F)(F)F)cc2)CC(=O)N1 (stereo unspecified) [GSK-466314A] | – | Phenotype: Inactive; Curve_Description: None | – | Phenotype: Inactive; Curve_Description: None
CC1=C(C(=O)Nc2cc(Cl)c3[nH]ncc3c2)C(c2ccc(C(F)(F)F)cc2)CC(=O)N1 (stereo unspecified) [GSK-466317A] | – | Phenotype: Inactive; Curve_Description: None | – | Phenotype: Inactive; Curve_Description: None
